Source: patent US6740743B2, “Scorpian toxins” (E. I. du Pont de Nemours and Company, priority 1999, dated 2004)

B1: ibj1c.pk0002.f9 (protein)
chain: MKFLYGIILIALFLTVMIATHSEARCPNCFTTNPNAEADCKKCCGNRWGKCAGYQCVCPMK

Columns and labels:
[1] = system: Ca+2-activated K-channels and voltage-dependent K-channel (K(v) 1.3); details: Maxi-K, medium- and small-conductance Ca+2-activated K-channels and K(v) 1.3; cited from earlier work
[2] = system: Heliothis virescens larvae; assay: Feeding bioassay of recombinant baculoviruses expressing the scorpion peptides on Heliothis virescens larvae; assay type: in vivo; details: four 5-day-old larvae fed 200 mg viral-contaminated diet; symptoms examined 4, 5, 6 and 7 days after fresh diet added
Text: It has been shown that single amino acids residues are important for receptor binding and for biological activity of K-channel toxins (Sabatier et al. (1994) Int. J. Peptide Protein Res. 43:486-495). The cDNAs described herein were cloned into baculoviruses and used to test their activity against Lepidopteran.
The DNA encoding the peptides was amplified by performing PCR and adding a Bgl II restriction site at the 5′ end and an Eco RI site at the 3′ end to allow cloning into the baculovirus transfer vector pAcUW21 (BD Biosciences-PharMingen, San Diego, Calif.). After amplification in E. coli the presence of the appropriate fragments was confirmed by restriction enzyme analysis. Colonies containing the appropriate fragments were isolated, propagated, and plasmid DNA was prepared for lipofectin-mediated co-transfection into insect cells with linearized polyhedrin-negative AcNPV. Co-transfections were performed essentially as described in Example 7. Polyhedrin-positive recombinant viruses were isolated employing standard plaque purification protocols and were mixed with a plug of HV diet (www.Bio-Serv.com) and fed to Heliothis virescens larvae.
Depicted in Table 3 are the results from two independent experiments in which four 5-day-old larvae were fed 200 mg of viral-contaminated diet. The larvae were allowed to eat for 2 days or until the viral-contaminated diet was consumed, then fresh 1 g diet plugs were added to allow continued feeding.

| Molecule | Potency of channel inhibition [1] | Activity of Scorpion Potassium Channel Modifiers on Heliothis virescens Larvae, Experiment 1 [2] | Activity of Scorpion Potassium Channel Modifiers on Heliothis virescens Larvae, Experiment 2 [2] |
| --- | --- | --- | --- |
| charybdotoxin [ChTX] | in the low nanomolar range | – | – |
| ibj1c.pk005.e21: Buthotus judaicus scorpion leiuropeptide III homolog; mature toxin amino acids 31-59 of SEQ ID NO:10, expressed from recombinant baculovirus (VGCEDCPEHCSQQNARAKCENDKCVCEPK) | – | Slightly Active | Active (scored as active if the larvae became irritated and had contractions and died) |
| ibj1c.pk005.n9: Buthotus judaicus scorpion potassium channel blocking toxin 15-1 homolog; mature toxin amino acids 23-58 of SEQ ID NO:18, expressed from recombinant baculovirus (DLIDVKCISSQECWIACKKVTGRFQGKCQNKQCRCY) | – | Slightly Active | Slightly Active |
| ibj1c.pk006.h8: Buthotus judaicus scorpion potassium channel blocking toxin 15-1 homolog; mature toxin amino acids 23-58 of SEQ ID NO:16, expressed from recombinant baculovirus (GLIDVRCSASRECWEACRKVTGSGQGKCQNNQCRCY) | – | Slightly Active | Active (scored as active if the larvae became irritated and had contractions and died) |
| ibj1c.pk006.i20: Buthotus judaicus scorpion kaliotoxin 2 precursor homolog; mature toxin amino acids 23-61 of SEQ ID NO:4, expressed from recombinant baculovirus (QYELDVTCMGGADNCVKPCYDKYGTTKTKCINDRCNCYP) | – | Slightly Active | Slightly Active |
| ibj1c.pk007.c13: Buthotus judaicus scorpion leiurotoxin I homolog; mature toxin amino acids 38-70 of SEQ ID NO:12, expressed from recombinant baculovirus (AFCNLRRCQLICRESGLLGKCIGDRCECVPHGK) | – | Slightly Active | Slightly Active |
| ibj1c.pk007.k8: Buthotus judaicus scorpion cobatoxin 1 homolog; mature toxin amino acids 22-58 of SEQ ID NO:2, expressed from recombinant baculovirus (NFKVEAAQCYSSDCRVKCAAMGFNSGKCINSKCKCYK) | – | Slightly Active | Slightly Active |
| ibj1c.pk008.d3: Buthotus judaicus scorpion leiuropeptide I homolog; mature toxin amino acids 29-56 of SEQ ID NO:8, expressed from recombinant baculovirus (VDCEECPFHCAGKNAIPTCDDGECNCNV) | – | Slightly Active | Slightly Active |
| ibj1c.pk009.i6: Buthotus judaicus scorpion kaliotoxin 2 precursor homolog; mature toxin amino acids 23-59 of SEQ ID NO:6, expressed from recombinant baculovirus (QVETNVKCTGGSCASTCKRVIGVAAGKCINGRCVCYP) | – | Slightly Active | Slightly Active |
| B1 | – | Slightly Active | Slightly Active |
